Results reported in the NIST ThermoML archive (doi:10.1016/j.jct.2003.12.005).
Numbers after ± are expanded uncertainties.

Key:
[1] = xn = mol fraction of the nth substance listed; settings: 101.3 kPa, Liquid
[2] = 101.3 kPa, Liquid

Compound: CCCCCCCCCC [decane] + CCC(C)O
- mass density ([1]; 293.15 K, x2 = 0): 729.9 ± 0.5 kg/m3
- speed of sound ([1]; 293.15 K, x2 = 0): 1254 ± 2 m/s
- viscosity ([1]; 293.15 K, x2 = 0): 0.911 ± 0.015 mPa·s
- mass density ([1]; 293.15 K, x2 = 0.0488): 730.9 ± 0.5 kg/m3
- speed of sound ([1]; 293.15 K, x2 = 0.0488): 1250 ± 2 m/s
- viscosity ([1]; 293.15 K, x2 = 0.0488): 0.9 ± 0.015 mPa·s
- mass density ([1]; 293.15 K, x2 = 0.0992): 732.4 ± 0.4 kg/m3
- speed of sound ([1]; 293.15 K, x2 = 0.0992): 1246 ± 2 m/s
- viscosity ([1]; 293.15 K, x2 = 0.0992): 0.905 ± 0.015 mPa·s
- mass density ([1]; 293.15 K, x2 = 0.2038): 736.2 ± 0.4 kg/m3
- speed of sound ([1]; 293.15 K, x2 = 0.2038): 1240 ± 2 m/s
- viscosity ([1]; 293.15 K, x2 = 0.2038): 0.926 ± 0.015 mPa·s
- mass density ([1]; 293.15 K, x2 = 0.3041): 740.4 ± 0.4 kg/m3
- speed of sound ([1]; 293.15 K, x2 = 0.3041): 1235 ± 2 m/s
- viscosity ([1]; 293.15 K, x2 = 0.3041): 0.956 ± 0.015 mPa·s
- mass density ([1]; 293.15 K, x2 = 0.3972): 745 ± 0.4 kg/m3
- speed of sound ([1]; 293.15 K, x2 = 0.3972): 1230 ± 2 m/s
- viscosity ([1]; 293.15 K, x2 = 0.3972): 1.008 ± 0.016 mPa·s
- mass density ([1]; 293.15 K, x2 = 0.498): 751 ± 0.4 kg/m3
- speed of sound ([1]; 293.15 K, x2 = 0.498): 1227 ± 2 m/s
- viscosity ([1]; 293.15 K, x2 = 0.498): 1.09 ± 0.017 mPa·s
- mass density ([1]; 293.15 K, x2 = 0.5972): 758.1 ± 0.4 kg/m3
- speed of sound ([1]; 293.15 K, x2 = 0.5972): 1224 ± 2 m/s
- viscosity ([1]; 293.15 K, x2 = 0.5972): 1.222 ± 0.02 mPa·s
- mass density ([1]; 293.15 K, x2 = 0.703): 767.5 ± 0.4 kg/m3
- speed of sound ([1]; 293.15 K, x2 = 0.703): 1223 ± 2 m/s
- viscosity ([1]; 293.15 K, x2 = 0.703): 1.454 ± 0.023 mPa·s
- mass density ([1]; 293.15 K, x2 = 0.8001): 777.7 ± 0.3 kg/m3
- speed of sound ([1]; 293.15 K, x2 = 0.8001): 1224 ± 2 m/s
- viscosity ([1]; 293.15 K, x2 = 0.8001): 1.787 ± 0.03 mPa·s
- mass density ([1]; 293.15 K, x2 = 0.9002): 790.5 ± 0.3 kg/m3
- speed of sound ([1]; 293.15 K, x2 = 0.9002): 1225 ± 2 m/s
- viscosity ([1]; 293.15 K, x2 = 0.9002): 2.389 ± 0.039 mPa·s
- mass density ([1]; 293.15 K, x2 = 0.9497): 798.2 ± 0.3 kg/m3
- speed of sound ([1]; 293.15 K, x2 = 0.9497): 1228 ± 2 m/s
- viscosity ([1]; 293.15 K, x2 = 0.9497): 2.879 ± 0.047 mPa·s
- mass density ([1]; 298.15 K, x2 = 0): 726.1 ± 0.5 kg/m3
- speed of sound ([1]; 298.15 K, x2 = 0): 1235 ± 2 m/s
- viscosity ([1]; 298.15 K, x2 = 0): 0.845 ± 0.014 mPa·s
- mass density ([1]; 298.15 K, x2 = 0.0488): 727.1 ± 0.5 kg/m3
- speed of sound ([1]; 298.15 K, x2 = 0.0488): 1230 ± 2 m/s
- viscosity ([1]; 298.15 K, x2 = 0.0488): 0.833 ± 0.014 mPa·s
- mass density ([1]; 298.15 K, x2 = 0.0992): 728.5 ± 0.4 kg/m3
- speed of sound ([1]; 298.15 K, x2 = 0.0992): 1226 ± 2 m/s
- viscosity ([1]; 298.15 K, x2 = 0.0992): 0.836 ± 0.014 mPa·s
- mass density ([1]; 298.15 K, x2 = 0.2038): 732.2 ± 0.4 kg/m3
- speed of sound ([1]; 298.15 K, x2 = 0.2038): 1220 ± 2 m/s
- viscosity ([1]; 298.15 K, x2 = 0.2038): 0.854 ± 0.014 mPa·s
- mass density ([1]; 298.15 K, x2 = 0.3041): 736.4 ± 0.4 kg/m3
- speed of sound ([1]; 298.15 K, x2 = 0.3041): 1215 ± 2 m/s
- viscosity ([1]; 298.15 K, x2 = 0.3041): 0.88 ± 0.014 mPa·s
- mass density ([1]; 298.15 K, x2 = 0.3972): 741 ± 0.4 kg/m3
- speed of sound ([1]; 298.15 K, x2 = 0.3972): 1211 ± 2 m/s
- viscosity ([1]; 298.15 K, x2 = 0.3972): 0.922 ± 0.015 mPa·s
- mass density ([1]; 298.15 K, x2 = 0.498): 746.9 ± 0.4 kg/m3
- speed of sound ([1]; 298.15 K, x2 = 0.498): 1207 ± 2 m/s
- viscosity ([1]; 298.15 K, x2 = 0.498): 0.989 ± 0.016 mPa·s
- mass density ([1]; 298.15 K, x2 = 0.5972): 754 ± 0.4 kg/m3
- speed of sound ([1]; 298.15 K, x2 = 0.5972): 1204 ± 2 m/s
- viscosity ([1]; 298.15 K, x2 = 0.5972): 1.091 ± 0.017 mPa·s
- mass density ([1]; 298.15 K, x2 = 0.703): 763.3 ± 0.4 kg/m3
- speed of sound ([1]; 298.15 K, x2 = 0.703): 1203 ± 2 m/s
- viscosity ([1]; 298.15 K, x2 = 0.703): 1.286 ± 0.02 mPa·s
- mass density ([1]; 298.15 K, x2 = 0.8001): 773.5 ± 0.3 kg/m3
- speed of sound ([1]; 298.15 K, x2 = 0.8001): 1204 ± 2 m/s
- viscosity ([1]; 298.15 K, x2 = 0.8001): 1.548 ± 0.025 mPa·s
- mass density ([1]; 298.15 K, x2 = 0.9002): 786.4 ± 0.3 kg/m3
- speed of sound ([1]; 298.15 K, x2 = 0.9002): 1207 ± 2 m/s
- viscosity ([1]; 298.15 K, x2 = 0.9002): 2.026 ± 0.033 mPa·s
- mass density ([1]; 298.15 K, x2 = 0.9497): 794 ± 0.3 kg/m3
- speed of sound ([1]; 298.15 K, x2 = 0.9497): 1209 ± 2 m/s
- viscosity ([1]; 298.15 K, x2 = 0.9497): 2.418 ± 0.039 mPa·s
- mass density ([1]; 303.15 K, x2 = 0): 722.3 ± 0.5 kg/m3
- speed of sound ([1]; 303.15 K, x2 = 0): 1215 ± 2 m/s
- viscosity ([1]; 303.15 K, x2 = 0): 0.787 ± 0.013 mPa·s
- mass density ([1]; 303.15 K, x2 = 0.0488): 723.2 ± 0.5 kg/m3
- speed of sound ([1]; 303.15 K, x2 = 0.0488): 1210 ± 2 m/s
- viscosity ([1]; 303.15 K, x2 = 0.0488): 0.774 ± 0.013 mPa·s
- mass density ([1]; 303.15 K, x2 = 0.0992): 724.6 ± 0.4 kg/m3
- speed of sound ([1]; 303.15 K, x2 = 0.0992): 1207 ± 2 m/s
- viscosity ([1]; 303.15 K, x2 = 0.0992): 0.776 ± 0.013 mPa·s
- mass density ([1]; 303.15 K, x2 = 0.2038): 728.2 ± 0.4 kg/m3
- speed of sound ([1]; 303.15 K, x2 = 0.2038): 1201 ± 2 m/s
- viscosity ([1]; 303.15 K, x2 = 0.2038): 0.791 ± 0.013 mPa·s
- mass density ([1]; 303.15 K, x2 = 0.3041): 732.4 ± 0.4 kg/m3
- speed of sound ([1]; 303.15 K, x2 = 0.3041): 1195 ± 2 m/s
- viscosity ([1]; 303.15 K, x2 = 0.3041): 0.812 ± 0.013 mPa·s
- mass density ([1]; 303.15 K, x2 = 0.3972): 736.9 ± 0.4 kg/m3
- speed of sound ([1]; 303.15 K, x2 = 0.3972): 1191 ± 2 m/s
- viscosity ([1]; 303.15 K, x2 = 0.3972): 0.847 ± 0.014 mPa·s
- mass density ([1]; 303.15 K, x2 = 0.498): 742.8 ± 0.4 kg/m3
- speed of sound ([1]; 303.15 K, x2 = 0.498): 1187 ± 2 m/s
- viscosity ([1]; 303.15 K, x2 = 0.498): 0.901 ± 0.014 mPa·s
- mass density ([1]; 303.15 K, x2 = 0.5972): 749.8 ± 0.4 kg/m3
- speed of sound ([1]; 303.15 K, x2 = 0.5972): 1185 ± 2 m/s
- viscosity ([1]; 303.15 K, x2 = 0.5972): 0.983 ± 0.016 mPa·s
- mass density ([1]; 303.15 K, x2 = 0.703): 759 ± 0.4 kg/m3
- speed of sound ([1]; 303.15 K, x2 = 0.703): 1184 ± 2 m/s
- viscosity ([1]; 303.15 K, x2 = 0.703): 1.142 ± 0.018 mPa·s
- mass density ([1]; 303.15 K, x2 = 0.8001): 769.2 ± 0.3 kg/m3
- speed of sound ([1]; 303.15 K, x2 = 0.8001): 1185 ± 2 m/s
- viscosity ([1]; 303.15 K, x2 = 0.8001): 1.351 ± 0.021 mPa·s
- mass density ([1]; 303.15 K, x2 = 0.9002): 782.1 ± 0.3 kg/m3
- speed of sound ([1]; 303.15 K, x2 = 0.9002): 1188 ± 2 m/s
- viscosity ([1]; 303.15 K, x2 = 0.9002): 1.736 ± 0.027 mPa·s
- mass density ([1]; 303.15 K, x2 = 0.9497): 789.8 ± 0.3 kg/m3
- speed of sound ([1]; 303.15 K, x2 = 0.9497): 1191 ± 2 m/s
- viscosity ([1]; 303.15 K, x2 = 0.9497): 2.047 ± 0.033 mPa·s

Compound: CCCCCCCCCCCC [dodecane]
- mass density ([2]; 293.15 K): 748.5 ± 0.5 kg/m3
- speed of sound ([2]; 293.15 K): 1297 ± 2 m/s
- viscosity ([2]; 293.15 K): 1.454 ± 0.023 mPa·s
- mass density ([2]; 298.15 K): 744.9 ± 0.5 kg/m3
- speed of sound ([2]; 298.15 K): 1278 ± 2 m/s
- viscosity ([2]; 298.15 K): 1.327 ± 0.021 mPa·s
- mass density ([2]; 303.15 K): 741.3 ± 0.5 kg/m3
- speed of sound ([2]; 303.15 K): 1259 ± 2 m/s
- viscosity ([2]; 303.15 K): 1.219 ± 0.02 mPa·s
